Assay results: patent US20260262643A1, “HERBICIDAL BENZOXAZINES” (FMC CORPORATION, priority 2022, published 2026)
Where two headings read alike, the source gives them in different places.

Tests used:
[1] = test system: corn; experiment: Test A preemergence; format: in vivo, Zea mays; conditions: Zea mays, pre-emergence, 240 h; for Corn plant response rating (crop injury, 0 = no effect, 100 = complete kill) at 125 g/ha: 125 g ai/ha; for Corn plant response rating (crop injury, 0 = no effect, 100 = complete kill) at 500 g/ha: 500 g ai/ha
How it was run: (§1)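 Greenhouse pot test, 10 days. Compound (non-phytotoxic solvent, surfactant) sprayed on soil at seeding or on seedlings at one- to two-leaf stage. Visual injury rated 0–100 against untreated plants.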

[2] = test system: foxtail, giant; experiment: Test A preemergence; format: in vivo, Setaria faberi; conditions: Setaria faberi, pre-emergence, 240 h, read-out: Plant response rating, Foxtail, Giant; for pest or weed control at 125 g/ha: 125 g ai/ha; for pest or weed control at 500 g/ha: 500 g ai/ha
How it was run: as §1

[3] = test system: oat, wild; experiment: Test A preemergence; format: in vivo, Avena fatua; conditions: Avena fatua, pre-emergence, 240 h, read-out: Plant response rating, Oat, Wild; for pest or weed control at 125 g/ha: 125 g ai/ha; for pest or weed control at 500 g/ha: 500 g ai/ha
How it was run: as §1

[4] = test system: pigweed, palmer; experiment: Test A preemergence; format: in vivo, Amaranthus palmeri; conditions: Amaranthus palmeri, pre-emergence, 240 h, read-out: Plant response rating, Pigweed, Palmer; for pest or weed control at 125 g/ha: 125 g ai/ha; for pest or weed control at 500 g/ha: 500 g ai/ha
How it was run: as §1

[5] = test system: ragweed; experiment: Test A preemergence; format: in vivo, Ambrosia artemisiifolia; conditions: Ambrosia artemisiifolia, pre-emergence, 240 h, read-out: Plant response rating, Ragweed; for pest or weed control at 125 g/ha: 125 g ai/ha; for pest or weed control at 500 g/ha: 500 g ai/ha
How it was run: as §1

[6] = test system: soybean; experiment: Test A preemergence; format: in vivo, Glycine max; conditions: Glycine max, pre-emergence, 240 h, read-out: Plant response rating, Soybean; for plant injury at 125 g/ha: 125 g ai/ha; for plant injury at 500 g/ha: 500 g ai/ha
How it was run: as §1

[7] = test system: blackgrass; experiment: Test A postemergence; format: in vivo, Alopecurus myosuroides; conditions: Alopecurus myosuroides, post-emergence, 240 h, postemergence, 10 days, 0 to 100 scale (0 no effect, 100 complete control); for pest or weed control at 125 g/ha: 125 g ai/ha, read-out: Blackgrass plant response rating; for pest or weed control at 500 g/ha: 500 g ai/ha, visual injury, read-out: Plant response rating, Blackgrass
How it was run: as §1

[8] = test system: kochia; experiment: Test A postemergence; format: in vivo, Bassia scoparia; conditions: Bassia scoparia, post-emergence, 240 h, postemergence, 10 days, 0 to 100 scale (0 no effect, 100 complete control); for pest or weed control at 125 g/ha: 125 g ai/ha, read-out: Kochia plant response rating; for pest or weed control at 500 g/ha: 500 g ai/ha, visual injury, read-out: Plant response rating, Kochia
How it was run: as §1

[9] = test system: oat, wild; experiment: Test A postemergence; format: in vivo, Avena fatua; conditions: Avena fatua, post-emergence, 240 h, postemergence, 10 days, 0 to 100 scale (0 no effect, 100 complete control); for pest or weed control at 125 g/ha: 125 g ai/ha, read-out: Oat, Wild plant response rating; for pest or weed control at 500 g/ha: 500 g ai/ha, visual injury, read-out: Plant response rating, Oat, Wild
How it was run: as §1

[10] = test system: pigweed, palmer; experiment: Test A postemergence; format: in vivo, Amaranthus palmeri; conditions: Amaranthus palmeri, post-emergence, 240 h, postemergence, 10 days, 0 to 100 scale (0 no effect, 100 complete control); for pest or weed control at 125 g/ha: 125 g ai/ha, read-out: Pigweed, Palmer plant response rating; for pest or weed control at 500 g/ha: 500 g ai/ha, visual injury, read-out: Plant response rating, Pigweed, Palmer
How it was run: as §1

[11] = test system: wheat; experiment: Test A postemergence; format: in vivo, Triticum aestivum; conditions: Triticum aestivum, post-emergence, 240 h, postemergence, 10 days, 0 to 100 scale (0 no effect, 100 complete control); for plant injury at 125 g/ha: 125 g ai/ha, read-out: Wheat plant response rating; for plant injury at 500 g/ha: 500 g ai/ha, visual injury, read-out: Plant response rating, Wheat
How it was run: as §1

[12] = test system: horseweed; experiment: Test A postemergence; format: in vivo, Erigeron canadensis; conditions: Erigeron canadensis, post-emergence, 240 h, postemergence, 10 days, 0 to 100 scale (0 no effect, 100 complete control); for pest or weed control at 125 g/ha: 125 g ai/ha, read-out: Horseweed plant response rating; for pest or weed control at 500 g/ha: 500 g ai/ha, visual injury, read-out: Plant response rating, Horseweed
How it was run: as §1

[13] = test system: barnyardgrass; experiment: Test B flooded paddy test; format: in vivo, Echinochloa crus-galli; conditions: Echinochloa crus-galli, 312 h, 250 g ai/ha, Flood, 13 days, 0 to 100 scale (0 no effect, 100 complete control); read-out: Plant response rating, Barnyardgrass
How it was run: (§2)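 Plants at the 2-leaf stage were flooded to 3 cm above the soil, and test compounds were applied directly into the paddy water, with that depth held throughout. After 13 days in a greenhouse, injury was rated visually against untreated controls on a 0–100 scale (100 = complete control).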

[14] = test system: rice; experiment: Test B flooded paddy test; format: in vivo, Oryza sativa; conditions: Oryza sativa, 312 h; 250 g ai/ha, Flood, 13 days, 0 to 100 scale (0 no effect, 100 complete control); read-out: Plant response rating, Rice
How it was run: as §2

[15] = visual injury after 10 days, 0 to 100 scale, 0 is no effect, 100 is complete control
[16] = 0 to 100 scale (0 no effect, 100 complete control), 10 days

## C[C@H]1CN(C(=S)c2cccc(-n3cncn3)c2)c2cccc(Cl)c2O1 [Compound 139, [(2S)-8-Chloro-2,3-dihydro-2-methyl-4H-1,4-benzoxazin-4-yl][3-(1H-1,2,4-triazol-1-yl)phenyl]methanethione]
[1]; 0 to 100 scale
  Corn plant response rating (crop injury, 0 = no effect, 100 = complete kill) at 125 g/ha: 0%
[1]; [15]
  Corn plant response rating (crop injury, 0 = no effect, 100 = complete kill) at 500 g/ha: 40%
[2]; 0 to 100 scale
  pest or weed control at 125 g/ha: 90%
[2]; [15]
  pest or weed control at 500 g/ha: 100%
[3]; 0 to 100 scale
  pest or weed control at 125 g/ha: 20%
[3]; [15]
  pest or weed control at 500 g/ha: 90%
[4]; 0 to 100 scale
  pest or weed control at 125 g/ha: 40%
[4]; [15]
  pest or weed control at 500 g/ha: 100%
[5]; 0 to 100 scale
  pest or weed control at 125 g/ha: 0%
[5]; [15]
  pest or weed control at 500 g/ha: 0%
[6]; 0 to 100 scale
  plant injury at 125 g/ha: 0%
[6]; [15]
  plant injury at 500 g/ha: 40%
[7]
  pest or weed control at 125 g/ha: 80%
  pest or weed control at 500 g/ha: 90%
[8]
  pest or weed control at 125 g/ha: 50%
  pest or weed control at 500 g/ha: 80%
[9]
  pest or weed control at 125 g/ha: 0%
  pest or weed control at 500 g/ha: 60%
[10]
  pest or weed control at 125 g/ha: 40%
  pest or weed control at 500 g/ha: 80%
[11]
  plant injury at 125 g/ha: 20%
  plant injury at 500 g/ha: 50%
[12]
  pest or weed control at 125 g/ha: 0%
  pest or weed control at 500 g/ha: 0%
[13]
  pest or weed control at 250 g/ha: 15%
[14]
  plant injury at 250 g/ha: 0%

## COCc1ncn(-c2cccc(C(=O)N3C[C@H](C)Oc4c(C)cccc43)c2)n1 [Compound 101, [(2S)-2,3-Dihydro-2,8-dimethyl-4H-1,4-benzoxazin-4-yl][3-[3-(methoxymethyl)-1H-1,2,4-triazol-1-yl]phenyl]methanone]
[1]; [15]
  Corn plant response rating (crop injury, 0 = no effect, 100 = complete kill) at 125 g/ha: 0%
[1]; [16]
  Corn plant response rating (crop injury, 0 = no effect, 100 = complete kill) at 500 g/ha: 60%
[2]; [15]
  pest or weed control at 125 g/ha: 90%
[2]; [16]
  pest or weed control at 500 g/ha: 100%
[3]; [15]
  pest or weed control at 125 g/ha: 40%
[3]; [16]
  pest or weed control at 500 g/ha: 90%
[4]; [15]
  pest or weed control at 125 g/ha: 90%
[4]; [16]
  pest or weed control at 500 g/ha: 100%
[5]; [15]
  pest or weed control at 125 g/ha: 0%
[5]; [16]
  pest or weed control at 500 g/ha: 20%
[6]; [15]
  plant injury at 125 g/ha: 20%
[6]; [16]
  plant injury at 500 g/ha: 40%
[7]
  pest or weed control at 125 g/ha: 70%
  pest or weed control at 500 g/ha: 100%
[8]
  pest or weed control at 125 g/ha: 70%
  pest or weed control at 500 g/ha: 80%
[9]
  pest or weed control at 125 g/ha: 40%
  pest or weed control at 500 g/ha: 90%
[10]
  pest or weed control at 125 g/ha: 50%
  pest or weed control at 500 g/ha: 60%
[11]
  plant injury at 125 g/ha: 20%
  plant injury at 500 g/ha: 70%
[12]
  pest or weed control at 125 g/ha: 0%
  pest or weed control at 500 g/ha: 30%
[13]
  pest or weed control at 250 g/ha: 15%
[14]
  plant injury at 250 g/ha: 0%

## C[C@H]1CN(C(=O)c2cccc(-c3cnn(C)n3)c2)c2cccc(Cl)c2O1 [Compound 127, [(2S)-8-Chloro-2,3-dihydro-2-methyl-4H-1,4-benzoxazin-4-yl][3-(2-methyl-2H-1,2,3-triazol-4-yl)phenyl]methanone]
[1]; [15]
  Corn plant response rating (crop injury, 0 = no effect, 100 = complete kill) at 125 g/ha: 0%
  Corn plant response rating (crop injury, 0 = no effect, 100 = complete kill) at 500 g/ha: 0%
[2]; [15]
  pest or weed control at 125 g/ha: 90%
  pest or weed control at 500 g/ha: 100%
[3]; [15]
  pest or weed control at 125 g/ha: 0%
  pest or weed control at 500 g/ha: 20%
[4]; [15]
  pest or weed control at 125 g/ha: 40%
  pest or weed control at 500 g/ha: 90%
[5]; [15]
  pest or weed control at 125 g/ha: 0%
  pest or weed control at 500 g/ha: 0%
[6]; [15]
  plant injury at 125 g/ha: 0%
  plant injury at 500 g/ha: 0%
[7]
  pest or weed control at 125 g/ha: 0%
  pest or weed control at 500 g/ha: 80%
[8]
  pest or weed control at 125 g/ha: 60%
  pest or weed control at 500 g/ha: 90%
[9]
  pest or weed control at 125 g/ha: 0%
  pest or weed control at 500 g/ha: 10%
[10]
  pest or weed control at 125 g/ha: 60%
  pest or weed control at 500 g/ha: 90%
[11]
  plant injury at 125 g/ha: 10%
  plant injury at 500 g/ha: 20%
[12]
  pest or weed control at 125 g/ha: 0%
  pest or weed control at 500 g/ha: 0%
[13]
  pest or weed control at 250 g/ha: 0%
[14]
  plant injury at 250 g/ha: 0%
